Patent US20250163168A1, “NOVEL ANTIBODIES AND ANTIBODY CONJUGATES FOR THE TREATMENT OF METABOLIC DISORDERS” (PFIZER INC., priority 2023, published 2025)
Square brackets hold non-standard residues; d marks the D form. Ends that are not written are not given here. * marks the point of attachment. Aib = CC(C)(N)C(=O)O; BrAc = O=C(CBr)*

Biological target: T1, human GLP1R (Homo sapiens, UniProt P43220)
T1 construct: expressed in transfected cells; host or cells: CHO
Test: GLP1R agonist cAMP assay in CHO cells stably expressing human GLP1R
Format: cell-based
Details: relative to maximal effect of human GLP-1, read-out: GLP1R agonist mode Emax (%)
Procedure: cAMP assay: The in vitro agonist potency of the peptides disclosed herein was evaluated using a cell-based assay measuring cAMP production. CHO cells stably expressing human GLP1R, or both human GIPR and GLP1R, were incubated with increasing concentrations of agonists for 30 minutes at 37° C. Cells were lysed and cAMP was detected using a homogenous time resolved fluorescence detection kit, as described by the manufacturer (Revvity). […] The EC50 and maximum effect (Emax) values were then determined from the normalized effects and agonist concentrations using a four-parameter logistic equation (GraphPad Prism).

T1 sequence (P43220 24-463): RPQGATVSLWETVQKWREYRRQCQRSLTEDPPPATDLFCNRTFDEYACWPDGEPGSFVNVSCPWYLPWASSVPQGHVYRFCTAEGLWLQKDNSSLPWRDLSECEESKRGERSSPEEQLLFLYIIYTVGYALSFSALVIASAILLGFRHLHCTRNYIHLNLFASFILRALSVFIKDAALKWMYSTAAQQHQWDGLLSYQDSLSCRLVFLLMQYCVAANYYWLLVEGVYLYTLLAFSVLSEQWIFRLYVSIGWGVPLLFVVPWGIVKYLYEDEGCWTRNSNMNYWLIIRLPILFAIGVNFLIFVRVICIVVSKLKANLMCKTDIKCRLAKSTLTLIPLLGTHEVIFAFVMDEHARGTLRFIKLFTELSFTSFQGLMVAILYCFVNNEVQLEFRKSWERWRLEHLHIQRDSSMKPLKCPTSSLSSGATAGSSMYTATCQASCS

| Compound | Emax [%] |
| --- | --- |
| CC[C@H](C)[C@H](NC(=O)[C@H](Cc1ccccc1)NC(=O)[C@H](CCC(=O)O)NC(=O)[C@H](CCCCN)NC(=O)[C@H](C)NC(=O)[C@H](C)NC(=O)[C@H](CCC(N)=O)NC(=O)[C@H](CCC(=O)O)NC(=O)[C@H](CCC(=O)O)NC(=O)[C@H](CC(C)C)NC(=O)[C@H](Cc1ccc(O)cc1)NC(=O)[C@H](CO)NC(=O)[C@H](CO)NC(=O)[C@H](Cc1ccc(O)cc1)NC(=O)[C@H](CC(=O)O)NC(=O)[C@H](CO)NC(=O)[C@@H](NC(=O)[C@H](Cc1ccccc1)NC(=O)[C@@H](NC(=O)CNC(=O)[C@H](CCC(=O)O)NC(=O)C(C)(C)NC(=O)[C@@H](N)Cc1c[nH]cn1)[C@@H](C)O)[C@@H](C)O)C(=O)N[C@@H](C)C(=O)N[C@@H](Cc1c[nH]c2ccccc12)C(=O)N[C@@H](CC(C)C)C(=O)N[C@H](C(=O)N[C@@H](CCCCN)C(=O)NCC(=O)NCC(=O)NCC(=O)NCC(=O)NCC(=O)NCC(=O)NCC(=O)N[C@@H](CO)C(=O)NCC(=O)NCC(=O)NCC(=O)NCC(=O)N[C@@H](CO)C(=O)NCC(=O)NCC(=O)NCC(=O)NCC(=O)N[C@@H](CO)C(=O)N[C@@H](CCCCNC(=O)CBr)C(N)=O)C(C)C [compound 154] | 122 |
| H[Aib]EGTFTSDVSSYLEEQAAKEFIAWLVKGGGGGGGSGGGGSGGGGSK(BrAc)-NH2 (C-terminus assumed) [compound 153] | 109 |
| H[Aib]EGTFTSDYSSYLEEQAAKEFIAWLVKGRGGGGGSGGGGSGGGGSK(BrAc)-NH2 (C-terminus assumed) [compound 151] | 109 |
| H[Aib]EGTFTSDYSSYLE[Aib]QAAKEFIAWLVKGRGGGGGSGGGGSGGGGSK(BrAc)-NH2 (C-terminus assumed) [compound 152] | 107 |
